Reference: patent EP0031653A1, “N-Substituted alpha-amino acids, processes for making them and pharmaceutical compositions containing them” (BEECHAM GROUP PLC, priority 1979, dated 1981)
Like-named read-outs stand apart in the source and are kept apart here.

Tests used:
normolipidaemic rats [1] = assay: Effects on serum lipids in vivo, rat Model A (Oxoid diet); parameters: species or system Male Sprague-Dawley rats; conditions: po, 168 h, compound at 0.1% of the diet (approximately 100 mg/kg/day), 7 days
Procedure: (§1) The compounds of the Examples above were tested for their effects on serum lipids in vivo using normolipidaemic rats.
(§2) Male Sprague-Dawley rats, 80-100 g, were randomised into groups of 8 after 5-7 days of feeding on the diet. The compounds were fed to the rats at a concentration of 0.1% of the powered diet (i.e. approximately 100 mg/kg/day), unless otherwise stated. The control groups were fed only the diet. At the end of the experiment, i.e. after 7 days, the rats were killed and their individual total serum cholesterol and triglyceride measured in mg/100 ml using a Technicon Autoanalyser. The high density lipoprotein (HDL)-cholesterol fraction, which was obtained from the serum by precipitation with heparin-manganous chloride, was only measured on "pooled" samples from each group.
(§3) The results are shown in Table 1 below. • ^+ Model A used an Oxoid diet. • Model B used a semi-synthetic diet rich in sucrose and cholesterol

normolipidaemic rats [2] = assay: Effects on serum lipids in vivo, rat Model B (semi-synthetic diet rich in sucrose and cholesterol); parameters: species or system Male Sprague-Dawley rats; conditions: compound at 0.1% of the diet (approximately 100 mg/kg/day), 7 days, * = significant at p<0.05
Procedure: as §1, §2, §3

[3] = * = significant at p<0.05, read-out: Percentage difference from control values in Total Serum cholesterol
[4] = * = significant at p<0.05, read-out: Percentage difference from control values in Total Serum triglyceride

Compound	change in vivo at 100 mg/kg/day (normolipidaemic rats [1]; [3]) [%]	change in vivo at 100 mg/kg/day (normolipidaemic rats [1]; [4]) [%]	Percentage difference from control values in Total Serum cholesterol (normolipidaemic rats [2])	Percentage difference from control values in Total Serum triglyceride (normolipidaemic rats [2])
O=C(O)C(Cc1ccc(Cl)cc1)NCc1ccc(Cl)cc1 (racemic) [Example 7, N-(4-Chlorobenzyl)-DL-4-chlorophenylalanine]	56	-50		
O=C(O)[C@@H](Cc1ccccc1)NCc1ccc(Cl)cc1 [Example 3, N-(4-Chlorobenzyl)-D-phenylalanine]			+49^* %	-67^* %
COC(=O)[C@H](Cc1ccccc1)NCc1ccc(Cl)cc1 [Example 18, N-(4-chlorobenzyl)-L-phenylalanine methyl ester]	25	-43		
O=C(O)[C@H](CSCc1ccccc1)NCc1ccc(Cl)cc1 [Example 8, N-(4-Chlorobenzyl)-S-benzyl-L-cysteine]	52	-35		
O=C(O)C(CCc1ccccc1)NCc1ccc(Cl)cc1 (racemic) [Example 15, (DL)-2-(4-Chlorobenzylamino)-4-phenylbutyric acid]	68	-11		
O=C(O)[C@H](Cc1ccccc1)NCc1ccc2c(c1)OCO2 [Example 1, N-(3,4-methylenedioxybenzyl)-L-phenylalanine]		-31		
O=C(O)[C@H](Cc1ccccc1)NCc1cccc(C(F)(F)F)c1 [Example 5, N-(3-Trifluoromethylbenzyl)-L-phenylalanine]	47	-41		
O=C(O)[C@H](Cc1ccc(O)cc1)NCc1ccc(Cl)cc1 [Example 17, N-4-chlorobenzyl-tyrosine]		-18		
O=C(O)C(Cc1ccncc1)NCc1ccc(Cl)cc1 (racemic) [Example 12, DL-2-(4-Chlorobenzylamino)-3-(4-pyridyl)-propionic acid]			-10%	-10%
O=C(O)C(Cc1ccccn1)NCc1ccc(Cl)cc1 (racemic) [Example 11, DL-2-(4-Chlorobenzylamino)-3-(2-pyridyl)-propionic acid]			+27^* %	+27%
O=C(O)C(Cc1c[nH]c2ccccc12)NCc1ccc(Cl)cc1 (racemic) [Example 14, N-4-Chlorobenzyl-DL-tryptophan]	36			
O=C(O)[C@H](Cc1ccccc1)NCc1ccc(Br)cc1 [Example 4, N-(4-Bromobenzyl)-L-phenylalanine]	43	-40		
O=C(O)[C@H](Cc1ccccc1)NCc1ccc(Cl)cc1 [Example 2, N-(4-chlorobenzyl)-L-phenylalanine]	31	-40	+14%	-44^* %
